Assay results reported in patent US12570657B2, “Mesylate salts of heterocyclic cytokinins, compositions containing these derivatives and use thereof” (UNIVERZITA PALACKEHO V OLOMOUCI, priority 2020, dated 2026).
Counter-ions that a name gives are not always drawn.

Key:
[1] = system: cytokinin-dependent tobacco callus; assay: Tobacco callus biotest (stimulation of plant cell division); format: cell-based, Nicotiana tabacum L. cv. Wisconsin 38; conditions: for activity (%) [10^−5 mol · l^−1 BAP = 100%]: callus growth at concentration with highest activity, 10^−5 M BAP = 100%; for concentration with highest activity: tobacco callus fresh weight increase, four weeks
Protocol: Stimulation effect of the cytokinin mesylates was tested in tobacco callus biotest using cytokinin dependent tobacco callus. Cytokinin-dependent tobacco callus Nicotiana tabacum L. cv. […] Subcultivation was carried out every three weeks. Fourteen days before the bioassay, the callus tissue was transferred to the media without BAP. Biological activity was determined from the increase in fresh callus weight after four weeks of cultivation. Five replicates were prepared for each cytokinin concentration and the entire test was repeated twice. […] Relative activity of the compound at this concentration was calculated (Tab. 15). The activity obtained for 10^−5 M 6-benzylaminopurine (BAP) was postulated as 100%. The cytokinin bases to be tested were dissolved in dimethylsulfoxide (DMSO) and the solution brought up to 10^−3 M with distilled water. The mesylate salts were dissolved directly in distilled water.

[2] = system: CEM (T-lymphoblastic leukemia); assay: In vitro cytotoxicity, Calcein AM assay, CEM; format: cell-based; conditions: 3-day Calcein-AM assay
From the text: (§1) Because toxic compounds adversely affect cell metabolic processes, many standard cytotoxicity assays are based on measuring the rate of metabolism of various artificial substrates. The resulting product is then quantified, for example, by spectrometry. Assays can be easily modified for use in 96-well plates, A microtiter assay based on the quantification of Calcein AM metabolism was used to evaluate the cytotoxicity of cytokinins, for example meta-topolin, ortho-topolin, kinetin, BAP or its mesylate salts, but also a number of other cytokinin mesylate derivatives according to the invention. The test is widely used in drug screening programs and in chemosensitivity testing. In living cells, Calcein AM is enzymatically hydrolyzed and the accumulation of the resulting calcein is manifested by green fluorescence. […] These cells were maintained in standard DMEM or RPMI medium (Sigma, MO, USA) supplemented with heat-inactivated fetal bovine serum (10%) with 2 mM L-glutamine and penicillin-streptomycin (1%) under standard cell culture conditions (37° C., 5% CO2 in a humid environment) and subcultured two or three times a week using a standard trypsinization procedure. Approximately 10,000 cells in 80 μl of medium were seeded in a 96-well microtiter plate. After 12 hours of incubation, the compounds to be tested were added in 20 μl aliquots. Control cultures were treated with DMSO alone. […] After 72 hours of incubation, Calcein AM solution (Molecular Probes) was added to a final concentration of 1 μg/ml and the cells were incubated for another hour.
(§2) Cytoxicity of compounds was tested on panel of cell lines of different histogenetic and species origin.

[3] = system: MCF-7 (breast adenocarcinoma); assay: In vitro cytotoxicity, Calcein AM assay, MCF7; format: cell-based; conditions: 3-day Calcein-AM assay
From the text: as §1, §2

[4] = system: K562 (chronic myeloid leukemia); assay: In vitro cytotoxicity, Calcein AM assay, K-562; format: cell-based; conditions: 3-day Calcein-AM assay
From the text: as §1, §2

[5] = system: winter wheat leaf segments; assay: Senescence bioassay: retention of chlorophyll in excised winter wheat leaf tips; format: in vivo, Triticum aestivum cv. Hereward; conditions: for activity (%) [10^−4 mol · l^−1 BAP = 100%]: chlorophyll retention at concentration with highest activity, 10^−4 M BAP = 100%; for concentration with highest activity: chlorophyll retention, excised wheat leaf tips, 96 h dark
Protocol: Seeds of winter wheat, Triticum aestivum cv. Hereward, were washed under running water for 24 hours and then sown on vermiculite soaked with Knop's solution. They were placed in a growth chamber at 25° C. with a 16/8 h light/dark period at 50 μmol·m^−2·s^−1. After 7 days, the first leaf was fully developed and the second leaf had started to grow. A tip section of the first leaf, approximately 35 mm long, was removed from 5 seedlings and trimmed slightly to a combined weight of 100 mg. The basal ends of the five leaf tips were placed in the wells of a microtiter polystyrene plate containing 150 μl of each tested compound solution. The entire plate was inserted into a plastic box lined with paper tissues soaked in distilled water to prevent leaf sections from drying out. After 96 h incubation in the dark at 25° C., the leaves were removed and chlorophyll extracted by heating at 80° C. for 10 min in 5 ml of 80% ethanol (v/v). The sample volume was then restored to 5 ml by the addition of 80% ethanol (v/v). The absorbance of the extract was recorded at 665 nm. In addition, chlorophyll extracts from fresh leaves and leaf tips incubated in deionised water were measured. […] Relative activity of the compound at this concentration was calculated (Tab. 3). The activity obtained for 10^−4 M 6-benzylaminopurine (BAP) was postulated as 100%. The values shown are means of five replicates and the whole experiment was repeated twice. The tested cytokinin bases were dissolved in dimethylsulfoxide (DMSO) and the solution brought up to 10^−3 M with distilled water. Cytokinin mesylate salts which are more water-soluble (BAP mesylate, meta-topolin mesylate and kinetin mesylate) could be directly dissolved to form a 10^−3 M solution in distilled water.

[6] = system: HL-60 (promyelocytic, leukemia); assay: In vitro cytotoxicity, Calcein AM assay, HL60; format: cell-based; conditions: 3-day Calcein-AM assay
From the text: as §1, §2

HOS (human osteosarcoma) = assay: In vitro cytotoxicity, Calcein AM assay, HOS; format: cell-based; conditions: 3-day Calcein-AM assay
From the text: as §1, §2

Structure (SMILES)	activity (%) [10^−5 mol · l^−1 BAP = 100%] [1] [%]	activity (%) [10^−4 mol · l^−1 BAP = 100%] [5] [%]	concentration with highest activity [5]	IC50 ([6]; Homo sapiens, HL-60, 72 h) [µM]	IC50 ([2]; 72 h) [µM]	IC50 ([3]; Homo sapiens, MCF7, 72 h) [µM]	IC50 ([4]; Homo sapiens, K562, 72 h) [µM]	IC50 ([2]; mesylate) [µM]	IC50 ([3]; mesylate) [µM]	IC50 ([4]; mesylate) [µM]	further results
CC(CO)CCNc1ncnc2[nH]cnc12.CS(=O)(=O)O (racemic) [DHZ mesylate, (RS)-4-((9H-Purin Ylamino)-2-Methylbutan-1-ol) Methanesulphonate]	78	82	10^−4 mol · l^−1	–	–	–	–	–	–	–	concentration with highest activity [1]: 10^−6 mol · l^−1; IC50 [2]: > 167 µM; IC50 [3]: > 167 µM; IC50 [4]: > 167 µM
CC(CO)CCNc1ncnc2nc[nH]c12 (racemic) [Dihydrozeatin (DHZ), dihydrozeatin]	78	81	–	> 167	> 167	> 167	> 167	–	–	–	IC50 (HOS (human osteosarcoma); Homo sapiens, 72 h): > 167 µM
CS(=O)(=O)O.Fc1ccc(CNc2ncnc3nc[nH]c23)c(F)c1 [2.4diFBAP mesylate]	–	141	10^−5 mol · l^−1	–	–	–	–	–	–	–	–
CS(=O)(=O)O.Clc1ccccc1CNc1ncnc2nc[nH]c12 [2ClBAP mesylate, 6-(2-chlorobenzylamino)purine mesylate]	97	122	–	–	–	–	–	112	128	90.4	IC50 (HOS (human osteosarcoma); mesylate): 100 µM
CS(=O)(=O)O.Fc1ccccc1CNc1ncnc2nc[nH]c12 [2FBAP mesylate, 6-(2-fluorobenzylamino)purine mesylate]	110	175	–	126	–	–	–	99.5	–	70.7	–
Fc1ccc(CNc2ncnc3nc[nH]c23)c(F)c1 [2MBAP mesylate]	121	157	10^−4 mol · l^−1	–	–	–	–	–	–	–	concentration with highest activity [1]: 10^−6 mol · l^−1
COc1ccccc1CNc1ncnc2nc[nH]c12.CS(=O)(=O)O [2MeOBAP mesylate, 6-(2-methoxybenzylamino)purine mesylate]	82	271	–	–	–	–	–	98.2	> 167	117	–
COc1ccccc1CNc1ncnc2nc[nH]c12 [2MeOBAP, 6-(2-methoxybenzylamino)purine]	79	–	–	> 167	63.4	153	116	–	–	–	IC50 (HOS (human osteosarcoma); Homo sapiens, 72 h): > 167 µM
COc1cccc(CNc2ncnc3nc[nH]c23)c1O [2OH3MeOBAP mesylate, 6-(2-hydroxy-3-methoxybenzylamino)purine mesylate]	–	–	–	–	–	–	–	51	32.1	–	IC50 ([6]; mesylate): 67.8 µM
COc1cccc(CNc2ncnc3nc[nH]c23)c1O [2OH3MeOBAP, 6-(2-hydroxy-3-methoxybenzylamino)purine]	–	–	–	64.3	41.6	26.6	> 167	–	–	–	–
